Results reported in ChEMBL document CHEMBL4321843, “Discovery of small-molecule candidates against inflammatory bowel disease” (Eur J Med Chem, 2020).

Experiments:
Type in all cases: functional
Mus musculus [1] = assay: Anti-colitis activity in ICR mouse model of DSS-induced colitis assessed as inhibition of DSS-induced colorectum shortening at 6 mg, po for 14 days relative to control
Mus musculus [2] = assay: Anti-colitis activity in ICR mouse model of DSS-induced colitis assessed as reduction in DSS-induced body weight loss at 6 mg, po for 14 days relative to control; design: scale not given: the % may be the effect or the level left
Rattus norvegicus [3] = assay: Anti-colitis activity in Sprague-Dawley rat model of acetic acid-induced colitis assessed as histological scores at 50 mg/kg, po administered for 7 consecutive days and measured on day 8 (reference value: 9.3 +/- 2.8)
Rattus norvegicus [4] = assay: Anti-colitis activity in Sprague-Dawley rat model of acetic acid-induced colitis assessed as disease activity index at 50 mg/kg, po administered for 7 consecutive days and measured on day 8 (reference value: 3.9 +/- 0.4)
Rattus norvegicus [5] = assay: Antiinflammatory activity in Sprague-Dawley rat model of acetic acid-induced colitis assessed as reduction in IFNgamma level in serum at 50 mg/kg, po administered for 7 consecutive days and measured on day 8 by ELISA method
Rattus norvegicus [6] = assay: Anti-colitis activity in Sprague-Dawley rat model of acetic acid-induced colitis assessed as colon mucosa damage index at 50 mg/kg, po administered for 7 consecutive days and measured on day 8 (reference value: 3.3 +/- 0.6)
Mus musculus [7] = assay: Anti-colitis activity in C57BL/6 (B6) mouse model of DSS-induced colitis assessed as disease activity index at 100 mg/kg, ig pretreated for 3 days followed by DSS treatment for 7 days (reference value: 5.67 +/- 1.03)

## O=c1c(O)c(-c2ccc(O)c(O)c2)oc2cc(O)cc(O)c12 [QUERCETIN]
Mus musculus [1]
  inhibition (INH): 18%
Mus musculus [2]
  Activity: 21%

## C[C@@H]1O[C@@H](OC[C@H]2O[C@@H](Oc3c(-c4ccc(O)c(O)c4)oc4cc(O)cc(O)c4c3=O)[C@H](O)[C@@H](O)[C@@H]2O)[C@H](O)[C@H](O)[C@H]1O [RUTIN]
Mus musculus [1]
  inhibition (INH): 73%
Mus musculus [2]
  Activity: 54%

## O=C(O[C@@H]1Cc2c(O)cc(O)cc2O[C@@H]1c1cc(O)c(O)c(O)c1)c1cc(O)c(O)c(O)c1 [EPIGALOCATECHIN GALLATE]
Rattus norvegicus [3]
  Activity: 4.6
Rattus norvegicus [4]
  Activity_index: 1.1
Rattus norvegicus [5]
  Activity: 33.3 pg/mL
Rattus norvegicus [6]
  Activity_index: 1.5

## O=C(O)[C@H]1O[C@@H](Oc2cc3oc(-c4ccccc4)cc(=O)c3c(O)c2O)[C@H](O)[C@@H](O)[C@@H]1O [BAICALIN]
Mus musculus [7]
  Activity_index: 3.33
